Experimental data from PubChem BioAssay (NCI).
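In this assay, cells in 96-well plates receive the compound at five concentrations for 48 hours. Endpoints are linearly interpolated between the surrounding concentrations. TGI marks complete inhibition of growth.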

Assays:
Assay in all cases: inhibition of tumour cell growth, NCI panel, 48 h
[1] = system: 786-0 renal
[2] = system: A549 NSCLC
[3] = system: ACHN renal
[4] = system: COLO 205 colon
[5] = system: DLD-1 colon
[6] = system: DMS 114 small cell lung
[7] = system: DMS 273 small cell lung
[8] = system: EKVX NSCLC
[9] = system: HCC-2998 colon
[10] = system: HCT-116 colon
[11] = system: HCT-15 colon
[12] = system: HOP-18 NSCLC
[13] = system: HOP-62 NSCLC
[14] = system: HOP-92 NSCLC
[15] = system: HT29 colon
[16] = system: IGROV1 ovarian
[17] = system: KM12 colon
[18] = system: KM20L2 colon
[19] = system: LOX IMVI melanoma
[20] = system: LXFL 529 NSCLC
[21] = system: M14 melanoma
[22] = system: M19-MEL melanoma
[23] = system: MALME-3M melanoma
[24] = system: MOLT-4 leukemia
[25] = system: NCI-H226 lung
[26] = system: NCI-H23 lung
[27] = system: NCI-H460 lung
[28] = system: NCI-H522 lung
[29] = system: OVCAR-3 ovarian
[30] = system: OVCAR-5 ovarian
[31] = system: OVCAR-8 ovarian
[32] = system: RPMI-8226 leukemia
[33] = system: RXF 393 renal
[34] = system: SF-268 CNS
[35] = system: SF-295 CNS
[36] = system: SF-539 CNS
[37] = system: SK-MEL-2 melanoma
[38] = system: SK-MEL-28 melanoma
[39] = system: SK-MEL-5 melanoma
[40] = system: SK-OV-3 ovarian
[41] = system: SN12C renal
[42] = system: SNB-75 CNS
[43] = system: SNB-78 CNS
[44] = system: SR leukemia
[45] = system: SW-620 colon
[46] = system: TK-10 renal
[47] = system: U251 CNS
[48] = system: UACC-257 melanoma
[49] = system: UACC-62 melanoma
[50] = system: UO-31 renal
[51] = system: XF 498 CNS
[52] = system: A498 renal
[53] = system: CAKI-1 renal
[54] = system: CCRF-CEM leukemia
[55] = system: HL-60(TB) leukemia
[56] = system: K-562 leukemia
[57] = system: OVCAR-4 ovarian
[58] = system: SNB-19 CNS

Measured: TGI

CC[C@H]1CC(=O)c2c(cc3c(c2O)C(=O)c2ccccc2C3=O)[C@@]1(C#N)C(=O)OC(C)(C)C
7.54 µM: [27]
5.85 µM: [37]
8.15 µM: [10]
46.5 µM: [30]
5.07 µM: [11]
32 µM: [42]
11.2 µM: [26]
8.62 µM: [24]
14.3 µM: [12] | [36]
10.1 µM: [15]
12.7 µM: [41]
53.3 µM: [47]
8.6 µM: [50]
20.9 µM: [35]
6.74 µM: [28]
23.1 µM: [33]
36.2 µM: [8]
46.4 µM: [1]
7.67 µM: [51]
7.08 µM: [5]
5.97 µM: [7]
36.8 µM: [19]
> 100 µM: [2] | [14] | [20] | [32] | [34] | [40] | [43] | [44]
17.9 µM: [9]
47.4 µM: [18]
37.5 µM: [46]
5.82 µM: [13]
7.97 µM: [6]
8.82 µM: [25]
13.4 µM: [45]
5.55 µM: [48]
15 µM: [31]
50.6 µM: [49]
7.11 µM: [16]
11 µM: [29]
14.5 µM: [21]
31.7 µM: [3]
23 µM: [38]
3.48 µM: [39]
15.8 µM: [22]
17.8 µM: [23]
7.77 µM: [17]
3.58 µM: [4]

COc1cc(/C=C2\CCC(C)(CN(C)C)C2=O)cc(OC)c1OC (centres undefined)
> 100 µM: [1] | [52] | [2] | [3] | [53] | [54] | [4] | [5] | [6] | [7] | [9] | [10] | [11] | [12] | [13] | [14] | [15] | [16] | [56] | [17] | [18] | [19] | [20] | [21] | [22] | [23] | [24] | [25] | [26] | [27] | [28] | [29] | [57] | [30] | [31] | [33] | [34] | [35] | [36] | [37] | [38] | [39] | [40] | [41] | [58] | [42] | [44] | [45] | [46] | [47] | [48] | [49] | [50] | [51]
99.4 µM: [43]
> 88.3 µM: [8]
> 72.9 µM: [32]
> 67.2 µM: [55]

COC(=O)/C(C#N)=C1\CCC(OC)N1 (centres undefined)
> 100 µM: [1] | [2] | [3] | [53] | [54] | [4] | [5] | [6] | [7] | [8] | [9] | [10] | [11] | [55] | [12] | [13] | [15] | [16] | [56] | [17] | [18] | [19] | [20] | [21] | [22] | [23] | [24] | [25] | [26] | [27] | [28] | [29] | [57] | [30] | [31] | [32] | [33] | [34] | [35] | [36] | [37] | [38] | [39] | [40] | [41] | [58] | [42] | [43] | [45] | [46] | [47] | [48] | [49] | [50] | [51]
